In paper PMC5563080, “The High-Affinity Interaction between ORC and DNA that Is Required for Replication Licensing Is Inhibited by 2-Arylquinolin-4-Amines” (Cell Chemical Biology, 2017):

System: U2OS
Test: cells
Parameters: Inhibition of MCM4 chromatin loading (replication licensing) in synchronised U2OS cells, immunofluorescence high-content imaging
Settings: Homo sapiens, 8 h, MCM4 DNA binding
Procedure: We used these changes to design a high-throughput assay for licensing inhibitors (Figure 1B). Human U2OS cells were released into S phase from a double-thymidine block (Figures S1A–S1C) and then treated with RO3306, a CDK1 inhibitor, to reversibly block them in G2 (Figure S1D). RO3306 was removed and cells were seeded into 384-well plates containing test compounds (Figure S1E). Eight hours later, when cells should have passed through mitosis and loaded MCM2–7, cells were fixed and immunostained for DNA-bound MCM4 and also treated with DAPI to stain total DNA (Figure S1F). Microscopic images of each treatment (Figures 1C and 1D) were taken on an InCell 1000 system, which returned values for MCM4 and DNA content for each of the cells identified. To avoid any confounding effects of RO3306 treatment, we then retested these 280 compounds using a low-throughput screen whereby cells were synchronized by mitotic shake-off prior to exposure with test compounds. This low-throughput assay also has the advantage of removing cells that suffer non-specific inhibition by test compounds, as only metabolically active cells can re-adhere to the plates. Sixteen compounds produced a reproducible reduction (>60%) of DNA-bound MCM4 in this assay. These 16 compounds fell into eight discrete chemical families, which we named RL1 to RL8. After resynthesis and re-assay, we decided to take 12 of these 16 compounds forward for further study: RL1a, RL1b, RL2, RL3a, RL3b, RL4, RL5a–RL5e, and RL8. […] Microscopic images (6 fields / well) of each treatment were taken on an InCell 1000 system (GE healthcare) using a 20x objective. ActivityBase from ID Business Solutions was used for the data processing and analysis, returning values for Mcm4 and DNA content for each of the cells identified. Figure S6 details the plate maps used for the assay. A Quality Control plate was included for every three assay plates (Figure S6), where columns 1-12 were low control wells (+ R03306 + 1% DMSO) and columns 13-24 were high control well (+Media + 1% DMSO). The performance of the assay on each screening plate was evaluated using internal controls. The criteria for data acceptance of an assay plate were signal to background (mean Hi Control) / (mean Lo Control) >1.5; Z-prime (1 - (3 x Lo Control Standard Deviation + 3 x SD Hi Control Standard Deviation) / (mean Hi Control - mean Lo Control)) >0.3. The statistics from all assay plates and Quality Control plates were analysed. The screen performance indicators were: signal to background 2.4±0.53 and Z-prime 0.47±0.10.

| Structure (SMILES) | IC50 [µM] |
| --- | --- |
| CN(C)CCNc1cc(-c2ccco2)nc2ccccc12 [RL5a] | 8 |
| CN(C)CCNc1cc(-c2cccs2)nc2ccccc12 [RL5b] | 22 |
| Cc1c(C)n(-c2nc3ccccc3s2)c2ncnc(NCCN(C)C)c12 [RL5e] | 7 |

The remaining compounds from weak to strong by IC50, led by results:

| IC50 [µM] | Structure (SMILES) |
| --- | --- |
| 59 | CN(C)CCNc1nc(-c2ccncc2)nc2ccccc12 [RL5c] |
| 32 | CCN(CC)CCNc1nc(-c2cccc(Cl)c2)nc2ccccc12 [RL5d] |
